The assay concerns the target 5-hydroxytryptamine receptor 6 (Homo sapiens, UniProt P50406). Briefly: Functional Assay: Functional assay using 5-HT6 receptors.

5-hydroxytryptamine receptor 6, sequence (P50406 whole entry): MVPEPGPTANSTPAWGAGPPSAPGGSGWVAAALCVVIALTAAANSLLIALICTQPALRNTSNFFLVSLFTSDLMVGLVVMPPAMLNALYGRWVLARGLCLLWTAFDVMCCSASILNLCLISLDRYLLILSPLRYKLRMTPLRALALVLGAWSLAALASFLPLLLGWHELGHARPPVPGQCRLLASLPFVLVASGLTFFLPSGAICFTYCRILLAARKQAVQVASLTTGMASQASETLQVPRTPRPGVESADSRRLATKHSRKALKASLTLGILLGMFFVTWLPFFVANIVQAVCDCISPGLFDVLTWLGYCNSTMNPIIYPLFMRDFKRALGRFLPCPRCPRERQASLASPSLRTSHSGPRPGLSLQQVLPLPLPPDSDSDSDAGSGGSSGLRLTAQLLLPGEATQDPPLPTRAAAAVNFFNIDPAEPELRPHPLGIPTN

Compound `CSc1nn2c(C)cc(C)nc2c1S(=O)(=O)c1ccc(F)c(Cl)c1` returned an IC50 of 0.046 µM.

The term IC50 denotes the midpoint of a concentration-inhibition curve. High values mean a need for much substance, low ones inhibition by little substance.

The values above are taken from ChEMBL document CHEMBL3639354, “(EN) 3-sulfonyl-pyrazolo[1,5-a] pyrimidines / antagonists of serotonin 5-HT6 receptors, methods for the production and the use thereof” (2013).
